Assays:
NHEKs = assay: Lactate production in the medium as index of glycolysis (Lactate Assay Kit); conditions: NHEKs treated 8 d with PS48, PS48 and UCN-01, or PS48 and 2-DG
Description: (§1) Four factor (Klf, Sox, Myc, and Oct)-transduced HUVECs were seeded at a density of 20,000 transduced cells per well, treated with metabolism modulating compounds for three weeks and TRA-1-81 positive colonies were counted. F2,6P, 10 mM Fructose 2,6-bisphosphate; F6P, 10 mM Fructose 6-phosphate; 6-AN, 10 μM 6-aminonicotinamide; OA, 10 μM oxalate; DNP, 1 μM 2,4-dinitrophenol; NOG, 1 μM N-oxalylglycine; QC, 1 μM Quercetin; 2-HA, 10 μM 2-Hydroxyglutaric acid; NA, 10 μM nicotinic acid; DMSO was used as a control.

[1] = tested on: Neonatal Human Epidermal Keratinocytes (NHEKs); assay: Reprogramming of transduced NHEKs to iPSCs, TRA-1-81 positive colonies; conditions: for reprogramming of NHEKs, TRA-1-81 positive colonies (in words): three factor (Klf, Sox, Oct)-transduced NHEKs, 100,000 cells per well, four weeks, 2-DG 10 mM
Description: The culture was split by Accutase (Millipore) and treated with 1 μM Thiazovivin (Stemgent) in the first day after splitting.

[2] = tested on: Human Umbilical Vein Endothelial Cells (HUVECs); assay: Reprogramming of four factor-transduced HUVECs using metabolism modulating compounds; conditions: four factor (Klf, Sox, Myc, Oct)-transduced HUVECs, 20,000 cells per well, three weeks; DNP 1 μM, NOG 1 μM, QC 1 μM, OA 10 μM, F2,6P 10 mM
Description: as §1

[3] = tested on: GLUT1, HK2, PFK1 and LDHA; assay: Expression of key glycolytic genes after treatment; conditions: PS48 treatment
Description: as §1

Row | SMILES | glycolysis, lactate production in the medium (in words) (NHEKs) | reprogramming of NHEKs, TRA-1-81 positive colonies (in words) [1] | effect on reprogramming, TRA-1-81 positive colonies (in words) [2] | also measured
1 | O=CC[C@@H](O)[C@H](O)[C@H](O)CO [2-Deoxy-D-glucose] | inhibited glycolysis | inhibited reprogramming process |  | 
2 | O=C(O)C(=O)O [oxalate] |  |  | inhibit reprogramming | 
3 | O=C(O)/C=C(/CCc1ccc(Cl)cc1)c1ccccc1 [PS48, (Z)-5-(4-Chlorophenyl)-3-phenylpent-2-enoic acid] | facilitated/activated a metabolic switch to glycolysis | enhanced reprogramming |  | enhancement of reprogramming efficiency ([1]; NHEKs transduced with OK (OCT4 + KLF4), treated with 0.5 μM PD0325901 and 0.5 μM A-83-01): about fifteen; expression of key glycolytic genes GLUT1, HK2, PFK1 and LDHA (in words) [3]: up-regulated
4 | O=[N+]([O-])c1ccc(O)c([N+](=O)[O-])c1 [2,4-dinitrophenol] |  |  | enhance reprogramming | 
5 | O=P(O)(O)OC[C@H]1O[C@@](CO)(OP(=O)(O)O)[C@@H](O)[C@@H]1O [Fructose 2,6-bisphosphate] |  |  | corresponding consistent effects on reprogramming | 
6 | CCCC(=O)[O-].[Na+] [NaB, sodium butyrate] |  |  |  | generation of iPSCs under OK condition (in words) ([1]; NHEKs, OCT4 + KLF4, 0.25 mM NaB compared with 0.5 mM VPA): much more reliable and efficient than the previously reported 0.5 mM VPA
7 | CN[C@@H]1C[C@H]2O[C@@](C)([C@@H]1OC)n1c3ccccc3c3c4c(c5c6ccccc6n2c5c31)C(=O)N[C@@H]4O [UCN-01] | inhibited glycolysis | inhibited reprogramming process |  | 
8 | O=C(O)CNC(=O)C(=O)O [N-oxalylglycine] |  |  | enhance reprogramming | 
9 | O=c1c(O)c(-c2ccc(O)c(O)c2)oc2cc(O)cc(O)c12 [Quercetin, 3,3′,4′,5,7-pentahydroxyflavone] |  |  | corresponding consistent effects on reprogramming | 

Source: patent publication US10738281B2, “Reprogramming cells” (The Scripps Research Institute, priority 2010, dated 2020)
